Experiment: LogP (1-octanol/water partition coefficient) of terpenes, slow-stirring method
From the text: LogP is the partition coefficient of a molecule between aqueous and lipophilic phases, usually considered as octanol and water. As referred to herein, the LogP of specific terpenes can be determined using the “slow-stirring” method, wherein water, 1-octanol and the test substance are equilibrated in a thermostated stirred reactor. Exchange between the phases is accelerated by stirring. The stirring introduces limited turbulence which enhances the exchange between 1-octanol and water without microdroplets being formed. A suitable “slow-stirring” method is: Test No. 123: Partition Coefficient (1-Octanol/Water): Slow-Stirring Method, 30 Jun. 2022, OECD Guidelines for the Testing of Chemicals.

| logP (LogP) | Compound | further results |
| --- | --- | --- |
|  | C=CC(C)(CCC=C(C)C)OC(C)=O (stereo not shown) [Linalyl acetate] | logP: 3.92 |
| > 6.4 | C=C1CC/C=C(\C)CC[C@@H]2[C@@H]1CC2(C)C [beta-caryophyllene] |  |
|  | C=C(C)[C@H]1CC=C(C)CC1 [Limonene] | logP (octanol/water): 4.4 |
| 3.56 | CC(C)=CCCC(C)CCO (stereo not drawn) [Beta-citronellol] |  |

Source: patent US20250287987A1, “AEROSOLISABLE MATERIAL” (NICOVENTURES TRADING LIMITED, priority 2022, published 2025)
